Assay results taken from patent US20220002674A1, “T CELLS WITH SUICIDE SWITCH” (priority 2018, published 2022).

Assays:
[1] = tested on: genetically-modified T cells; test: rimiducid dose that eliminates infused genetically-modified T cells; type: in vivo; details: cells infused at 1.5×10^7 cells/kg
[2] = tested on: WT1, PRAME, MAGE, NE and PR3; test: IFN-γ ELIspot for LAA-specific T cells against peptide pools; type: cell-based, human; details: 10 nM rimiducid
Description: PBMCs were mixed with pre-warmed (37° C.) cell culture media and centrifuged cells at […] for 10′ at 4° C. Cells were resuspended and counted using Cellometer. Cells were then centrifuged again at 1200 rpm for 10′. The cells were then resuspended in culture media at a concentration of 1×10^6/mL and 100 μL were added per well. 100 μL of 2X peptide stock or PHA were added to the desired wells. The plates were mixed gently for 2′. The plates were transferred to a 37° C. incubator with 5% CO2 and incubated for 18-24 hours. 100 μL capture anti-IFNγ antibody was added to each PBS-pre wetted well. The plates were then incubated at 4±3° C. overnight. After incubation the plates were washed 3 times with 200 μL D-PBS. Unbound sites were blocked with 100 μL D-PBS containing 10% culture media for 120+15 minutes at room temperature in a BSC. The plates were then washed 3 times with 200 μL D-PBS. 200 μL D-PBS were added into the wells. The plates were left at room temperature until the cells are ready. When cells were ready plates were removed from the incubator and the wells rinsed 2 times with tap water. The plates were then washed 5 times with D-PBS, containing 0.05% Tween 20. The wells and well bottoms were rinsed with distilled water. […] Plates were left to dry at room temperature before reading on an ELISpot reader.

[3] = tested on: CD3+CD19+ cells (iC9+ T cells); test: flow cytometric analysis of cells harvested from spleens 48 h post drug treatment; type: in vivo, NSG mice; details: for reduction of CD3+CD19+ cells in spleen: 48 h, compared to vehicle
Description: (§1) In vivo studies were performed by i.v. injection of control or gene-modified T cells co-expressing luciferase into NSG mice. 1×10^7 EGFPluc+ iC9-T cells were infused into NSG mice. T cell bioluminescence was measured at 2 and 24 hours after infusion, followed by i.p. injection of a titrated dose of rimiducid or placebo (control drug). The animals were administered either control drug (temsirolimus; 1 mg/kg), rimiducid (0.001-1 mg/kg), or vehicle. Remaining T cell bioluminescence was measured at 6, 24 and 48 hours after drug administration. Bioluminescent imaging and flow cytometry were performed to assess in vivo depletion following iC9 activation.
FIG. 18 depicts a flow cytometric analysis of cells harvested from spleens 48 h post drug treatment.

AOS-1 T cells = test: 4-hour apoptosis assay with 10 nM rimiducid on AOS-1 T cells sorted by CD19 intensity; type: cell-based, human; details: for CD19+ specific killing: low-CD19 sorted cells; for median killing efficacy: 10 nM, 4 hours
Description: To measure apoptosis 5×10^5 cells were plated per 48-well, and rimiducid was added at a concentration of 10 nM in a 4-hour assay. Phenotyping and functional assays (e.g., apoptosis) were performed by flow cytometry, qPCR and Western blot before and after T cell reactivation using anti-CD3/anti-CD28 antibodies. The phenotype of the cells was determined by staining cells for flow cytometry analysis with anti-CD3, anti-CD4, anti-CD8, anti-CD19, anti-CD45RA, anti-CD45RO, and anti-CCR7 antibodies. Terminal effector memory cells are defined as CD45RA^+CD45RO^−CCR7^−. T effector memory cells are defined as CD45RA^−CD45RO^+CCR7^−. T central memory cells are defined as CD45RA^−CD45RO^+CCR7^+. Naïve T cells are defined as CD45RA^+CD45RO^−CCR7^+. Diversity of the T cell receptor repertoire was assessed by flow cytometry.

[4] = human, in vivo; cited from earlier work
EGFPluc+ iC9-T cells = test: T cell bioluminescence (IVIS) in NSG mice after rimiducid; type: in vivo
Description: as §1
The maximal elimination effect in the kill switch induced by rimiducid was reached 24 hours post drug administration. The values for average radiance were normalized to the initial radiance in each mouse using the formula: D Average radiance=100*[Timepoint “X” radiance]/[Timepoint “0” radiance]. Error bars represents S.E.M. Two-way ANOVA test was used to assess statistical significance of differences in T cell radiance between multiple groups at different time points.

AOS-1 cells = test: speed of elimination of low-, medium- and high-CD19 populations in mice after rimiducid (FIG. 27); type: in vivo; details: 5 mg/kg rimiducid on day 0, 1.5×10^7 AOS-1 cells on day −1
Excerpt: Figures are means from 40 mice.
Further experiments looked at the speed of elimination of low-CD19, medium-CD19 and high-CD19 populations after administration of rimiducid.

CD3+CD19+ T cells = test: rimiducid treatment of patients engrafted with AOS-1 to control GvHD; type: in vivo, human
Description: Engraftment and persistence of the donor modified T cells were measured by co-expression of CD3 and CD19 by flow cytometry. Endogenous and gene-modified T cells were also phenotyped for CD4:CD8 ratios, memory cell composition (TN, TCM, TEM, TEMRA; CD45RA and CD62L) and T cell receptor Vβ diversity.

CC[C@H](C(=O)N1CCCC[C@H]1C(=O)O[C@H](CCc1ccc(OC)c(OC)c1)c1cccc(OCC(=O)NCCNC(=O)COc2cccc([C@@H](CCc3ccc(OC)c(OC)c3)OC(=O)[C@@H]3CCCCN3C(=O)[C@@H](CC)c3cc(OC)c(OC)c(OC)c3)c2)c1)c1cc(OC)c(OC)c(OC)c1 (relative stereo) [rimiducid, 2-Piperidinecarboxylic acid, 1-[(2S)-1-oxo-2-(3,4,5-trimethoxyphenyl)butyl]-, 1,2-ethanediylbis[imino(2-oxo-2,1-ethanediyl)oxy-3,1-phenylene[(1R)-3-(3,4-dimethoxyphenyl)propylidene]] ester, [2S-[1(R*),2R*[S*[S*[1(R*),2R*]]]]]-(9CI)]
dose that can eliminate cells [1]: 0.4 mg/kg | LAA-reactivity on exposure to rimiducid [2]: greatly diminished | reduction of CD3+CD19+ cells in spleen ([3]; 0.01 mg/kg): 99.6% | reduction of CD3+CD19+ cells in spleen ([3]; 0.1 mg/kg): 98.6% | reduction of CD3+CD19+ cells in spleen ([3]; 1 mg/kg): 89.6% | MFI of CD19 in CD3+CD19+ cells ([3]; treated groups, down to 0.001 mg/kg): dose dependent decrease | apoptosis (AOS-1 T cells; all fractions after reactivation with anti-CD3/anti-CD28): over 90% | cells gone through apoptosis (AOS-1 T cells; high MFI of CD19 cells, 10 nM rimiducid, within 4 hours): more than 95% | CD19+ specific killing (AOS-1 T cells; after activation in vitro): 97% | CD19+ specific killing (AOS-1 T cells; before activation): 46% | median killing efficacy (AOS-1 T cells; sorted high CD19 cells): 92% | median killing efficacy (AOS-1 T cells; sorted low CD19 cells): 69% | median killing efficacy (AOS-1 T cells; sorted medium CD19 cells): 87% | killing (AOS-1 T cells; unstimulated high iC9-ΔCD19 cells): 86% | killing (AOS-1 T cells; unstimulated low iC9-ΔCD19 cells): 50% | killing (AOS-1 T cells; unstimulated medium iC9-ΔCD19 cells): 76% | safety in healthy volunteers [4]: proven safe in healthy volunteers | reduction of relative total flux (EGFPluc+ iC9-T cells; 0.01 mg/kg i.p., 6-hour): 82.5% | reduction of relative total flux (EGFPluc+ iC9-T cells; 0.01 mg/kg i.p., 24-hour): 90.5% | reduction of relative total flux (EGFPluc+ iC9-T cells; 0.01 mg/kg i.p., 48-hour): 90.5% | reduction of relative total flux (EGFPluc+ iC9-T cells; 0.1 mg/kg i.p., 6-hour): 92.5% | reduction of relative total flux (EGFPluc+ iC9-T cells; 0.1 mg/kg i.p., 24-hour): 95.5% | reduction of relative total flux (EGFPluc+ iC9-T cells; 0.1 mg/kg i.p., 48-hour): 95.3% | reduction of relative total flux (EGFPluc+ iC9-T cells; 1 mg/kg i.p., 6-hour): 96% | reduction of relative total flux (EGFPluc+ iC9-T cells; 1 mg/kg i.p., 24-hour): 98.1% | reduction of relative total flux (EGFPluc+ iC9-T cells; 1 mg/kg i.p., 48-hour): 98.1% | time at which maximal elimination effect was reached (EGFPluc+ iC9-T cells; post drug administration): 24 h | elimination of CD19-high cells (AOS-1 cells): eliminated within half an hour | elimination of CD19-low cells (AOS-1 cells): declined more slowly | elimination of CD19-medium cells (AOS-1 cells): fell to near-zero within an hour | course of CD3+CD19+ T cells and GvHD after rimiducid (CD3+CD19+ T cells; patients treated with rimiducid): recovered without further instances of GvHD | decrease of CD3+CD19+ T cells in the peripheral blood (CD3+CD19+ T cells; three patients with GvHD): 62±12%
